Several values for one entry are separate records, joined by “and”; a condition that tells them apart may be missing. Equal entries are not always repeated. Where two headings read alike, the source gives them in different places.
Legend:
[1] = biological target: CB1 (rCB1) (Rattus norvegicus, UniProt P20272); test: Single-point radioligand displacement screen; type: binding; conditions: for % 1H-CP-55,940 displacement (mean) from single point screen: 10 µM, 1 µM or 300 nM by cell colour (not visible); for rep1_displacement / rep2_displacement / rep3_displacement: Figure 1c source data; for rep1_displacement: replicate 1; for rep2_displacement: replicate 2; for rep3_displacement: replicate 3
[2] = biological target: hCB1 (Homo sapiens, UniProt P21554); test: bioSensAll ebBRET signaling profiling, hCB1; type: cell-based; parameters: host or cells: HEK293SL cells, transient PEI transfection; conditions: for Gi1 hCB1 response: Gi1 biosensor; for Gi1 hCB1 / GoB hCB1: single replicate values, FigS6a; for Emax [95% CI]: normalized to CP-55,940; for EC50: read-out: EC50 [95% CI]
[3] = Log [Compound] (M) -13, individual replicate values

Chain of CB1 (rCB1) (P20272 whole entry): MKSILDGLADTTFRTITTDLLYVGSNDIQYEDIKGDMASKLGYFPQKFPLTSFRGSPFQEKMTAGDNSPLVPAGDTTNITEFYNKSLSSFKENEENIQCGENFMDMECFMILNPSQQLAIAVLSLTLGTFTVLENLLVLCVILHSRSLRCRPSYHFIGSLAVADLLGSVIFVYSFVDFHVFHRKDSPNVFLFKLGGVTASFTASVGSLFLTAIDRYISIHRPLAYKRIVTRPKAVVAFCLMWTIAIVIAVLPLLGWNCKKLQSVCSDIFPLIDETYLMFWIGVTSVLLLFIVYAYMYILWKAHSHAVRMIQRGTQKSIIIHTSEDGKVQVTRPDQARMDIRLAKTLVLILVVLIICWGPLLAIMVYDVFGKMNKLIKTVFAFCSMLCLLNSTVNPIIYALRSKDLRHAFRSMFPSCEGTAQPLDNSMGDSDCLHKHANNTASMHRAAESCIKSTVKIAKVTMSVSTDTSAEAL
Chain of hCB1 (P21554 whole entry): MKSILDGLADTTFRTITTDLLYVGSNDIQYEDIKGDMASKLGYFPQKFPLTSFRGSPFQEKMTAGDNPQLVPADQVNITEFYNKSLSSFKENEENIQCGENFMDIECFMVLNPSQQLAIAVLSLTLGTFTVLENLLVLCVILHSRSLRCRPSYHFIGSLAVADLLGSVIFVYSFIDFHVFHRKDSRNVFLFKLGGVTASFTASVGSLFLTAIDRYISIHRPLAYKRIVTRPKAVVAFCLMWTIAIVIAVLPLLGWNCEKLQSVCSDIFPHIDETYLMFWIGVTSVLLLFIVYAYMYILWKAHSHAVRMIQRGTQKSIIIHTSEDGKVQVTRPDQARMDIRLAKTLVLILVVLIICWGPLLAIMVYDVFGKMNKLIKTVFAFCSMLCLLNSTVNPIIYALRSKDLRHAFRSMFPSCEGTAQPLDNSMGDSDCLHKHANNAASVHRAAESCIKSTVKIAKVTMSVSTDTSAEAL

## CCCC1CN(C(=O)c2cc(Oc3cccc(Br)c3)ccn2)CCO1 (centres unmarked) [compound 83628]
[1]
  % 1H-CP-55,940 displacement (mean) from single point screen: 12.80%
  rep1_displacement: 14
  rep2_displacement: 14.4
  rep3_displacement: 10.1

## Cn1nc(-c2nnc(CCOc3ccc(Cl)cc3)o2)c2ccccc2c1=O [0450_24]
[1]
  % 1H-CP-55,940 displacement (mean) from single point screen: 12.07%

## COc1cc(OC)cc(-c2nc([C@H](OC)c3ccc(Br)cc3)no2)c1 [compound 13596]
[1]
  % 1H-CP-55,940 displacement (mean) from single point screen: 47.56%
  rep1_displacement: 46.1
  rep2_displacement: 49

## O=C(c1cn(-c2cccc(C(F)(F)F)c2)nn1)N1CC2(CCC2)C1C1CCCO1 (centres unmarked) [10_23]
[1]
  % 1H-CP-55,940 displacement (mean) from single point screen: 25.67%

## O=C(OCc1ncnn1-c1ccccc1)c1csc(Cc2ccccc2F)n1 [compound 67565]
[1]
  % 1H-CP-55,940 displacement (mean) from single point screen: 8.02%
  rep1_displacement: 8
  rep3_displacement: 8

## Cn1nc(-c2nnc(C(C)(C)Oc3ccc(F)cc3)o2)c2ccccc2c1=O [compound 31486]
[1]
  % 1H-CP-55,940 displacement (mean) from single point screen: 32.26%

## COC(=O)c1nc(N(C)CCOc2ccc(Br)cc2)sc1C [compound 22875]
[1]
  % 1H-CP-55,940 displacement (mean) from single point screen: 27.03%
  rep1_displacement: 25.7
  rep2_displacement: 29.1
  rep3_displacement: 26.3

## Cc1c(C(=O)OCC2CSc3ccccc3O2)cnn1-c1ccccc1 (centres unmarked) [compound 3189]
[1]
  % 1H-CP-55,940 displacement (mean) from single point screen: 46.85%

## COc1ccc(Cl)c(-c2cc(C(=O)N3CCOC[C@@H]3CC(C)C)on2)c1 [compound 97878]
[1]
  % 1H-CP-55,940 displacement (mean) from single point screen: 33.55%
  rep1_displacement: 62.5
  rep2_displacement: 14.5
  rep3_displacement: 23.7

## O=C(OCC1CSc2ccccc2O1)c1csc(Cc2ccccc2)n1 (centres unmarked) [compound 86798]
[1]
  % 1H-CP-55,940 displacement (mean) from single point screen: 2.04%

## Cn1nc(CNC(=O)C(C)(C)Oc2ccc(Cl)cc2)c2ccccc2c1=O [0450_26]
[1]
  % 1H-CP-55,940 displacement (mean) from single point screen: 7.64%

## Cc1c(C(=O)NCC2CSc3ccccc3O2)nnn1Cc1ccc(F)cc1 (centres unmarked) [compound 22139]
[1]
  % 1H-CP-55,940 displacement (mean) from single point screen: 13.03%

## COC(=O)[C@@H](NC(=O)c1cc(C)n(-c2cccc(Cl)c2)n1)c1ccc(OC)cc1 [compound 69543]
[1]
  % 1H-CP-55,940 displacement (mean) from single point screen: 10.83%

## Cc1cc(C(=O)N2CC3(CCC3)[C@@H]2[C@@H]2CCCO2)nn1-c1cccc(C(F)(F)F)c1 [‘3386]
[2]; Log [Compound] (M) -4.22186
  Gi1 hCB1 response: -31.6589
  Gi1 hCB1: -5.415
  GoB hCB1: -7.725
[2]; Log [Compound] (M) -4.63927
  Gi1 hCB1 response: -26.0187
  Gi1 hCB1: -6.833
  GoB hCB1: -8.211
[2]; Log [Compound] (M) -5.47381
  Gi1 hCB1 response: -11.5379
  Gi1 hCB1: -2.408
  GoB hCB1: -3.409
[2]; Log [Compound] (M) -5.89285
  Gi1 hCB1 response: -4.6
  Gi1 hCB1: -1.499
  GoB hCB1: -1.485
[2]; Log [Compound] (M) -6.31878
  Gi1 hCB1 response: 6.86
  Gi1 hCB1: 1.292
  GoB hCB1: 2.327
[2]; Log [Compound] (M) -6.72585
  Gi1 hCB1 response: -4.577
  Gi1 hCB1: 0.5361
  GoB hCB1: 1.033
[2]; Log [Compound] (M) -7.14267
  Gi1 hCB1 response: -3.682
  Gi1 hCB1: 0.4282
  GoB hCB1: 0.7269
[2]; Log [Compound] (M) -7.55284
  Gi1 hCB1 response: 0.369
  Gi1 hCB1: 0.9215
  GoB hCB1: 3.892
[2]; Log [Compound] (M) -8
  Gi1 hCB1 response: -1.959
  Gi1 hCB1: 0.7057
  GoB hCB1: 1.158
[2]; Log [Compound] (M) -8.22186
  Gi1 hCB1 response: -1.847
  Gi1 hCB1: 1.7386
  GoB hCB1: -4.075
[2]; Log [Compound] (M) -8.39794
  Gi1 hCB1 response: 6.792
  Gi1 hCB1: -1.406
  GoB hCB1: 4.1437
[2]; Log [Compound] (M) -8.68787
  Gi1 hCB1 response: 5.83
  Gi1 hCB1: 1.2761
  GoB hCB1: -1.251
[2]; Log [Compound] (M) -9.15521
  Gi1 hCB1 response: -6.435
  Gi1 hCB1: 1.261
  GoB hCB1: -3.967
[2]; Log [Compound] (M) -9.61989
  Gi1 hCB1 response: 5.561
  Gi1 hCB1: 1.816
  GoB hCB1: -0.8377
[2]; Log [Compound] (M) -10.0969
  Gi1 hCB1 response: -3.167
  Gi1 hCB1: 0.3511
  GoB hCB1: 1.158
[2]; Log [Compound] (M) -10.5529
  Gi1 hCB1 response: 5.808
  Gi1 hCB1: 1.014
  GoB hCB1: 1.536
[2]; Log [Compound] (M) -11.0177
  Gi1 hCB1 response: 14.3798
  Gi1 hCB1: 0.7982
  GoB hCB1: 0.4571
[2]; Log [Compound] (M) -11.4949
  Gi1 hCB1 response: 4.331
  Gi1 hCB1: 1.029
  GoB hCB1: 2.058
[2]; Log [Compound] (M) -11.9208
  Gi1 hCB1 response: 0.6376
  Gi1 hCB1: -0.1422
  GoB hCB1: 1.68
[2]; Log [Compound] (M) -12.3979
  Gi1 hCB1 response: 3.01
  Gi1 hCB1: 0.5053
  GoB hCB1: 2.184
[2]; Log [Compound] (M) -12.8861
  Gi1 hCB1 response: 17.2222
  Gi1 hCB1: -0.04972
  GoB hCB1: 1.176
[2]; [3]
  Gi1 hCB1 response: 0.5257 and -2.921
[2]; Log [Compound] (M) -5.05788
  Gi1 hCB1: -4.3047
  GoB hCB1: -5.316
[2]; Log [Compound] (M) -13
  Gi1 hCB1: 2.124 and 3.311
  GoB hCB1: 2.399 and 2.327

## Cc1cc(C(=O)N2CC3(CCC3)[C@H]2[C@@H]2CCCO2)nn1-c1cccc(C(F)(F)F)c1 [‘5490]
[2]; Log [Compound] (M) -4.22186
  Gi1 hCB1 response: 126.936
  Gi1 hCB1: 94.6851
  GoB hCB1: 96.1825
[2]; Log [Compound] (M) -4.63927
  Gi1 hCB1 response: 115.566
  Gi1 hCB1: 84.6644
  GoB hCB1: 79.6378
[2]; Log [Compound] (M) -5.47381
  Gi1 hCB1 response: 67.3119
  Gi1 hCB1: 56.452
  GoB hCB1: 52.9325
[2]; Log [Compound] (M) -5.89285
  Gi1 hCB1 response: 63.8428
  Gi1 hCB1: 36.6417
  GoB hCB1: 40.0205
[2]; Log [Compound] (M) -6.31878
  Gi1 hCB1 response: 33.6054
  Gi1 hCB1: 21.1018
  GoB hCB1: 23.8534
[2]; Log [Compound] (M) -6.72585
  Gi1 hCB1 response: 15.275
  Gi1 hCB1: 10.5569
  GoB hCB1: 12.0564
[2]; Log [Compound] (M) -7.14267
  Gi1 hCB1 response: 11.8954
  Gi1 hCB1: 5.469
  GoB hCB1: 9.719
[2]; Log [Compound] (M) -7.55284
  Gi1 hCB1 response: 0.9509
  Gi1 hCB1: 7.104
  GoB hCB1: 4.971
[2]; Log [Compound] (M) -8
  Gi1 hCB1 response: 4.733
  Gi1 hCB1: 4.236
  GoB hCB1: 4.953
[2]; Log [Compound] (M) -8.22186
  Gi1 hCB1 response: -9.009
  Gi1 hCB1: 2.062
  GoB hCB1: 0.1334
[2]; Log [Compound] (M) -8.39794
  Gi1 hCB1 response: 1.018
  Gi1 hCB1: 3.018
  GoB hCB1: 6.805
[2]; Log [Compound] (M) -8.68787
  Gi1 hCB1 response: -1.578
  Gi1 hCB1: 2.71
  GoB hCB1: -2.061
[2]; Log [Compound] (M) -9.15521
  Gi1 hCB1 response: -18.3419
  Gi1 hCB1: 2.078
  GoB hCB1: 0.565
[2]; Log [Compound] (M) -9.61989
  Gi1 hCB1 response: 1.018
  Gi1 hCB1: 1.014
  GoB hCB1: 0.7988
[2]; Log [Compound] (M) -10.0969
  Gi1 hCB1 response: 0.1452
  Gi1 hCB1: 3.712
  GoB hCB1: 2.4173
[2]; Log [Compound] (M) -10.5529
  Gi1 hCB1 response: 4.89
  Gi1 hCB1: 2.602
  GoB hCB1: 1.752
[2]; Log [Compound] (M) -11.0177
  Gi1 hCB1 response: 13.5964
  Gi1 hCB1: 1.5536
  GoB hCB1: 4.395
[2]; Log [Compound] (M) -11.4949
  Gi1 hCB1 response: -2.608
  Gi1 hCB1: 3.327
  GoB hCB1: 4.324
[2]; Log [Compound] (M) -11.9208
  Gi1 hCB1 response: 1.712
  Gi1 hCB1: 2.772
  GoB hCB1: 3.352
[2]; Log [Compound] (M) -12.3979
  Gi1 hCB1 response: -1.959
  Gi1 hCB1: 2.124
  GoB hCB1: 2.741
[2]; Log [Compound] (M) -12.8861
  Gi1 hCB1 response: -5.584
  Gi1 hCB1: 2.556
  GoB hCB1: 2.3094
[2]; [3]
  Gi1 hCB1 response: 3.39 and 3.458
[2]; Log [Compound] (M) -5.05788
  Gi1 hCB1: 72.2386
  GoB hCB1: 59.1548
[2]; Log [Compound] (M) -13
  Gi1 hCB1: 3.496 and 2.864
  GoB hCB1: 2.327 and 3.748
[2]; hCB1 Gi1
  pEC50 [95% CI]: 5.6 [5.5 – 5.6]
  Emax [95% CI]: 98 [94 – 102]
  EC50: 2800 nM
[2]; hCB1 GoB
  pEC50 [95% CI]: 5.2 [4.8 – 5.6]
  Emax [95% CI]: 118 [94 – 143]
  EC50: 6730 nM
[2]; hCB1 Gz
  pEC50 [95% CI]: 5.6 [5.2 – 6.1]
  EC50: 2470 nM

— article PMC11882969 (Nature Communications, 2025)
